Results published in patent EP4796561A1, “ANTI-SYNAPTOTAGMIN 2 ANTIBODY” (Jiksak Bioengineering, Inc., priority 2023, dated 2025).
Where a SMILES comes first, the peptide text is derived from it. [ ]: non-standard residue; d: D form. The star is where a group is joined. Dolaproine = CO[C@@H]([C@@H]1CCCN1)[C@@H](C)C(=O)O; Dil = CC[C@H](C)[C@H](NC)[C@@H](CC(=O)O)OC; X1 = C[C@@H](N*)[C@@H](O)c1ccccc1; NMeV = CN[C@H](C(=O)O)C(C)C

Tests used:
[1] = tested on: Human iPS-derived motor neuron; assay: Pharmacological effect of antibody-MMAE conjugates: axonal amount (Tuj1 staining) in motor neuron neurospheres with LRRTM2 bead-induced presynapse; assay type: cell-based; details: normalized to Cont. IgG-MMAE set to 100%; 1µg/mL, 30 minutes with 100µM 4-aminopyridine, then 24 hours culture; Tuj1 brightness
Experimental: Human iPS-derived motor neuron (40HU-005-2M; ixcells biotechnologies) was thawed using Dead Cell Removal kit (Veritas) according to the protocol of the kit. The cells after thawing were plated in 96-well plates (V-bottom) at a density of 2×10^4 cells/well and cultured in the motor neuron culture medium (Motor Neuron Maintenance Medium; ixcells biotechnologies) for 1 week to prepare neurospheres. The prepared neurospheres were selected based on size and roundness, and those satisfying this criterion were used in the subsequent experiments.
After coating a 96-well EZVIEW (registered trademark) culture plate LB (AGC Technoglass Co., Ltd.) with poly-D-lysine and Geltrex (registered trademark) Matrix (Thermo Fisher Scientific), the selected neurospheres were then plated and cultured for 20 days. As the medium, the above-described motor neuron culture medium was used first, and medium change with the same medium was performed on the second day of culture. Thereafter, medium was changed three times per week using neuronal medium (Neurobasal plus medium (B27 plus supplement (Thermo Fisher Scientific), 20ng/mL BDNF, 20ng/mL GDNF, and penicillin-streptomycin were added)). Each medium change was performed at 50 µL/well.
Microbeads coated with the extracellular domain of LRRTM2 (active beads) were prepared as disclosed in WO2021/006075. […]

[2] = target: human Synaptotagmin 2 expressed on HEK293T cells (human) (UniProt Q8N9I0); assay: flow cytometry on HEK293T cells expressing human SYT2 at 0.01 µg/mL antibody; reference is the polyclonal rabbit anti-SYT2 N-terminal antibody (Synaptic Systems 105 223)
Chain of UniProt Q8N9I0 (Q8N9I0 whole entry): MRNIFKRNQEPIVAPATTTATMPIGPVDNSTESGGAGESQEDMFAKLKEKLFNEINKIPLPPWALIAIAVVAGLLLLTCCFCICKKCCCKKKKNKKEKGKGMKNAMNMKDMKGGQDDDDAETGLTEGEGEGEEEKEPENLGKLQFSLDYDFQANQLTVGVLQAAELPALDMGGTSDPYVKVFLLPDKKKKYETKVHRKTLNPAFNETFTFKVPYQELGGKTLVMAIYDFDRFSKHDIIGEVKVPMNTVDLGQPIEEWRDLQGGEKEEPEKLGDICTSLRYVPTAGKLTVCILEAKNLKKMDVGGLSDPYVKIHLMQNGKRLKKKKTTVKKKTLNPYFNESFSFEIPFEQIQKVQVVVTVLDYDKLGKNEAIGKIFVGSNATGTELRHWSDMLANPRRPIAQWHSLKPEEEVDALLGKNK

Molecule	relative amount of axon [1]	fluorescence intensity relative to the control polyclonal antibody [2]
CC[C@H](C)[C@@H]([C@@H](CC(=O)N1CCC[C@H]1[C@H](OC)[C@@H](C)C(=O)N[C@H](C)[C@@H](O)c1ccccc1)OC)N(C)C(=O)[C@@H](NC(=O)[C@@H](NC)C(C)C)C(C)C [MMAE, monomethyl auristatin E] (H-[NMeV]V[Dil][Dolaproine]-X1)	no significant differences	
monoclonal antibody according to the present invention (anti-Synaptotagmin 2 intravesicular domain (N-terminal) monoclonal antibody) (antibody, V domains shown) VH: EVQLQQSGAELVRPGASVKLSCTASGFNIKDDYVHWVKQRPEQGLEWIGWIDPENGDTEYASKFQGKATITADASSNAAYLQLSSLTSEDTAAYYCTTDYYNNPFAYWGQGTLVTVSA VL: QIVLTQSPAIMSASPGEKVTITCSASSSVSYMHWFQQKPGTSPKLWIYSTSKLASGVPVRFSGSGSGTSYSLTISRMEAEDAATYYCQQRSSYPFTFGSGTKLEIK		2 fold
